According to ChEMBL document CHEMBL1773062, “Opioid receptor probes derived from cycloaddition of the hallucinogen natural product salvinorin A” (J Nat Prod, 2011):

Columns and labels:
[1] = target: T1, Kappa-type opioid receptor (Homo sapiens, UniProt P41145); assay: Displacement of [3H]U69593 from kappa opioid receptor
[2] = target: T1, Kappa-type opioid receptor; assay: Agonist activity at kappa opioid receptor assessed as stimulation of [35S]GTPgammaS binding relative to U50488; format: functional
[3] = target: Delta-type opioid receptor (Homo sapiens, UniProt P41143); assay: Displacement of [3H]DADLE from delta opioid receptor
Delta-type opioid receptor, sequence (P41143 whole entry): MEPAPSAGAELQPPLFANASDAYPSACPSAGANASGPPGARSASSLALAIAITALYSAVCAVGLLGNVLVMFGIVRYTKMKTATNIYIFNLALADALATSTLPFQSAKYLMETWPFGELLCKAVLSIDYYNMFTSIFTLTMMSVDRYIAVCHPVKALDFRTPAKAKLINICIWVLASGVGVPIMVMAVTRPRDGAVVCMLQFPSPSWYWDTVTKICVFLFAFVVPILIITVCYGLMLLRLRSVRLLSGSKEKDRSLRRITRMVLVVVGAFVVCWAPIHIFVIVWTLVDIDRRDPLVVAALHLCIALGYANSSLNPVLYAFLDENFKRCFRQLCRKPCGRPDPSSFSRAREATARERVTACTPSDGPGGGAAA

Mu-type opioid receptor = Mu-type opioid receptor (Homo sapiens, UniProt P35372); assay: Displacement of [3H]DAMGO from mu opioid receptor
Mu-type opioid receptor, sequence (P35372 whole entry): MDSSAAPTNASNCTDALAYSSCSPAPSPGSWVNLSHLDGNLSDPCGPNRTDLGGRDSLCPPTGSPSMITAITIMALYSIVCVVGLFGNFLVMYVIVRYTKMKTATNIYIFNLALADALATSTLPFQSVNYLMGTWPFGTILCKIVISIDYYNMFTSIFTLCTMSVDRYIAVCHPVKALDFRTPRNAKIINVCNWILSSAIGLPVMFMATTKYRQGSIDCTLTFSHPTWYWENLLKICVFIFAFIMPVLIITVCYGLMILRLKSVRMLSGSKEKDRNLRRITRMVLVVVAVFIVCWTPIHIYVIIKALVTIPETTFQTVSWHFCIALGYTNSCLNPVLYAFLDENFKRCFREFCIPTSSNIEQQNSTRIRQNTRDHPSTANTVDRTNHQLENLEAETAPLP

[4] = Selectivity ratio of Ki for mu opioid receptor to Ki for kappa opioid receptor
[5] = Selectivity ratio of Ki for delta opioid receptor to Ki for kappa opioid receptor

T1 sequence (P41145 whole entry): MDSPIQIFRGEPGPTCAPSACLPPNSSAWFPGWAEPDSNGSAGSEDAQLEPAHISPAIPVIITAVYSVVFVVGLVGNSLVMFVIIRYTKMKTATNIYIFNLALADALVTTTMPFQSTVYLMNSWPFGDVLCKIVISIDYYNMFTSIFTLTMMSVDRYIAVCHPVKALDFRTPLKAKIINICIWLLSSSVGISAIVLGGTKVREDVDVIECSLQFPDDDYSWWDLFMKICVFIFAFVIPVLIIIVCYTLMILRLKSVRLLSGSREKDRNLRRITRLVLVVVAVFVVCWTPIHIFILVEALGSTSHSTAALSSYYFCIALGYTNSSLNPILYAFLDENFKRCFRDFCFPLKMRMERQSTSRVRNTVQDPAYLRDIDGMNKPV

SMILES	Ki [1]	Emax [2]	Ki [3]	Ki (Mu-type opioid receptor)	Ratio Ki [4]	Ratio Ki [5]
CCOC(=O)C1=C(C(=O)OCC)C2OC1C=C2[C@@H]1C[C@]2(C)[C@H]3C(=O)[C@@H](OC(C)=O)C[C@@H](C(=O)OC)[C@]3(C)CC[C@H]2C(=O)O1 (some centres not stated)	0.12 µM	90%	2.26 µM	> 3.2 µM	> 25	19
CCOC(=O)c1ccc([C@@H]2C[C@]3(C)[C@H]4C(=O)[C@@H](OC(C)=O)C[C@@H](C(=O)OC)[C@]4(C)CC[C@H]3C(=O)O2)cc1C(=O)OCC	0.228 µM	–	> 5 µM	> 3 µM	> 13	> 22
COC(=O)[C@@H]1C[C@H](OC(C)=O)C(=O)[C@H]2[C@@]1(C)CC[C@H]1C(=O)O[C@H](C3=CC4OC3C3C4C4OC3(C)c3c4c4ccccc4c(=O)c4ccccc34)C[C@]21C (some centres not stated)	0.29 µM	–	> 5 µM	> 1.7 µM	> 6	> 17
COC(=O)[C@@H]1C[C@H](OC(C)=O)C(=O)[C@H]2[C@@]1(C)CC[C@H]1C(=O)O[C@H](c3ccc4ccccc4c3)C[C@]21C	> 8 µM	–	> 5 µM	> 3 µM	> 0.4	> 0.6
COC(=O)c1ccc([C@@H]2C[C@]3(C)[C@H]4C(=O)[C@@H](OC(C)=O)C[C@@H](C(=O)OC)[C@]4(C)CC[C@H]3C(=O)O2)cc1C(=O)OC	0.286 µM	–	> 5 µM	> 3 µM	> 8	> 17
COC(=O)[C@@H]1C[C@H](OC(C)=O)C(=O)[C@H]2[C@@]1(C)CC[C@H]1C(=O)O[C@H](C3=CC4OC3c3ccccc34)C[C@]21C (some centres not stated)	0.79 µM	–	> 10 µM	> 2.5 µM	> 3	> 13
COC(=O)C1=C(C(=O)OC)C2OC1C=C2[C@@H]1C[C@]2(C)[C@H]3C(=O)[C@@H](OC(C)=O)C[C@@H](C(=O)OC)[C@]3(C)CC[C@H]2C(=O)O1 (some centres not stated)	0.06 µM	100%	> 5 µM	> 4.8 µM	> 80	> 83
COC(=O)[C@@H]1C[C@H](OC(C)=O)C(=O)[C@H]2[C@@]1(C)CC[C@H]1C(=O)O[C@H](C3=CC4OC3C3C5OC(c6c5c5ccccc5c(=O)c5ccccc65)C43)C[C@]21C (mixture of isomers)	> 13 µM	–	> 5.2 µM	> 2.7 µM	> 0.2	> 17
